ChEMBL document CHEMBL3871295, “N-Propargylpiperidines with naphthalene-2-carboxamide or naphthalene-2-sulfonamide moieties: Potential multifunctional anti-Alzheimer's agents” (Bioorg Med Chem, 2017)
Calls of active or inactive are those of the source. The rule behind the calls is not given here.

Columns and labels:
Acetylcholinesterase = target: T1, Acetylcholinesterase (Mus musculus, UniProt P21836)
T1 sequence (P21836 whole entry): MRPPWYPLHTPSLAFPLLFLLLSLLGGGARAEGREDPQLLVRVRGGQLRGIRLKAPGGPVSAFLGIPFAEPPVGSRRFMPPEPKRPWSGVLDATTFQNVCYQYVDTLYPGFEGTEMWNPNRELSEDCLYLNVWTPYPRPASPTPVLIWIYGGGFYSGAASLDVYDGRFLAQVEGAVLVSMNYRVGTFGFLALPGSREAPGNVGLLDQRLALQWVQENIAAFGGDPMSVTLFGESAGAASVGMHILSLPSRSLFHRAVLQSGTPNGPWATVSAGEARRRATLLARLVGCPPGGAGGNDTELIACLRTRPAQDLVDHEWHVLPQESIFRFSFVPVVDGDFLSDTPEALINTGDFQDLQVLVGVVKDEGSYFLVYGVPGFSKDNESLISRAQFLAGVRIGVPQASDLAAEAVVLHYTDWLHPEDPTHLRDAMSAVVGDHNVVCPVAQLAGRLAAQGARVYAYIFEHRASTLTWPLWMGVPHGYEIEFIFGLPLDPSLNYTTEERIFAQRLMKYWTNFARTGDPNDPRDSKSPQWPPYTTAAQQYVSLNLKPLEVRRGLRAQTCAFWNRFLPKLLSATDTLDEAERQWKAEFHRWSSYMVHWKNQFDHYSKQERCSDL

[1] = target: Amyloid-beta precursor protein (Homo sapiens) (UniProt P05067); test: Inhibition of HFIP-pretreated recombinant human amyloid beta (1 to 42) self-induced aggregation at 10 uM measured after 20 hrs for every 300 secs by thioflavin-T based fluorometric assay relative to control
Homo sapiens = species on record: Homo sapiens; test: Selectivity ratio of IC50 for human recombinant microsomal MAO-A expressed in baculovirus-infected insect cells to IC50 for human recombinant microsomal MAO-B expressed in baculovirus-infected insect cells
[2] = target: T2, Amine oxidase [flavin-containing] A (Homo sapiens, UniProt P21397); test: biochemical
T2 sequence (P21397 whole entry): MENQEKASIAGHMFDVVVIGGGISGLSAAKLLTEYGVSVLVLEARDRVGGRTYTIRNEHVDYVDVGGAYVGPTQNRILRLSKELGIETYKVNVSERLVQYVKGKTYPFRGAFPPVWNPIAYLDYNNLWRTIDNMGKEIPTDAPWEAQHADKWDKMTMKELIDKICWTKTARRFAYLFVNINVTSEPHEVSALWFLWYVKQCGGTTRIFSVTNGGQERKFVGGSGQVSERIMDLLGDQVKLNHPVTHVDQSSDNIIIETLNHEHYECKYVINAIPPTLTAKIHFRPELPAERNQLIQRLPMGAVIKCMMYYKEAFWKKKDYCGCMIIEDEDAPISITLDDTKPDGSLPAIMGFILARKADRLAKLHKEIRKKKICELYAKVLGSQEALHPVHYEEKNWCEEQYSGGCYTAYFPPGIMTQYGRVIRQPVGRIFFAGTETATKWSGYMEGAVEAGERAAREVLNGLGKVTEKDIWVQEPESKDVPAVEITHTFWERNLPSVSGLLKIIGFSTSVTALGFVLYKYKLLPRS

[3] = target: T3, Amine oxidase [flavin-containing] B (Homo sapiens, UniProt P27338); test: biochemical; type: cell-based
T3 sequence (P27338 whole entry): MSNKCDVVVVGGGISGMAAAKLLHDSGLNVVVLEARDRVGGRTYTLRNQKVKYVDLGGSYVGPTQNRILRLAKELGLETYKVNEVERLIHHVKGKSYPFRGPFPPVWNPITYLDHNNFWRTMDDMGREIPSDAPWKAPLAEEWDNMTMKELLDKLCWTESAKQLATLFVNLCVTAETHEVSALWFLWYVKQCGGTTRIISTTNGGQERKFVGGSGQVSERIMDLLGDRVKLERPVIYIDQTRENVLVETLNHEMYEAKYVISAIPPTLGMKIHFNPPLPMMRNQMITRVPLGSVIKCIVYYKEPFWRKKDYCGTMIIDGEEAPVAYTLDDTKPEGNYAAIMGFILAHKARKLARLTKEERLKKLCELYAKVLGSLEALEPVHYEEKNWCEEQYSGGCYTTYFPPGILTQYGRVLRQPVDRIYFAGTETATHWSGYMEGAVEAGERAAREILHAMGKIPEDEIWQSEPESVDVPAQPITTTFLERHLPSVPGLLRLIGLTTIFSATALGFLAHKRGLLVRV

Cholinesterase = Cholinesterase (Homo sapiens, UniProt P06276)
BChE = test: in vitro; conditions: human, SH-SY5Y cells
SH-SY5Y [4] = test: Neuroprotective activity against amyloid beta (1 to 42) induced cell death in human SH-SY5Y cells assessed as cell viability at 5 uM measured after 48 hrs by MTS assay; type: functional, cell-based
[5] = Cytotoxicity against human SH-SY5Y cells at 5 uM measured after 48 hrs by MTS assay; type: toxicity, cell-based
[6] = target: T3, Amine oxidase [flavin-containing] B; test: Irreversible inhibition of human recombinant microsomal MAO-B expressed in baculovirus-infected insect cells at 10 times IC50 preincubated for 15 mins followed by dilution to […] and subsequent addition of p-tyramine hydrochloride substrate measured for 30 mins by amplex red assay relative to control; conditions: 0.5 h
[7] = target: T3, Amine oxidase [flavin-containing] B; test: Time-dependent inhibition of human recombinant microsomal MAO-B expressed in baculovirus-infected insect cells preincubated for 5 to 30 mins by IC50 shift assay
MAO-B = test: Selectivity index, ratio of LD50 for cytotoxicity against human SH-SY5Y cells to IC50 for human recombinant microsomal MAO-B expressed in baculovirus-infected insect cells; type: toxicity; conditions: read-out: Ratio LD50/IC50
[8] = Cytotoxicity against human SH-SY5Y cells measured after 48 hrs by MTS assay; type: toxicity, cell-based; conditions: read-out: LD50
SH-SY5Y [9] = test: Neuroprotective activity against amyloid beta (1 to 42) induced cell death in human SH-SY5Y cells assessed as cell viability at […] measured after 48 hrs by MTS assay; type: functional, cell-based
[10] = Cytotoxicity against human SH-SY5Y cells at […] measured after 48 hrs by MTS assay; type: toxicity, cell-based
[11] = PAMPA, pH 7.4

Sequence of Amyloid-beta precursor protein (Homo sapiens) (P05067 whole entry): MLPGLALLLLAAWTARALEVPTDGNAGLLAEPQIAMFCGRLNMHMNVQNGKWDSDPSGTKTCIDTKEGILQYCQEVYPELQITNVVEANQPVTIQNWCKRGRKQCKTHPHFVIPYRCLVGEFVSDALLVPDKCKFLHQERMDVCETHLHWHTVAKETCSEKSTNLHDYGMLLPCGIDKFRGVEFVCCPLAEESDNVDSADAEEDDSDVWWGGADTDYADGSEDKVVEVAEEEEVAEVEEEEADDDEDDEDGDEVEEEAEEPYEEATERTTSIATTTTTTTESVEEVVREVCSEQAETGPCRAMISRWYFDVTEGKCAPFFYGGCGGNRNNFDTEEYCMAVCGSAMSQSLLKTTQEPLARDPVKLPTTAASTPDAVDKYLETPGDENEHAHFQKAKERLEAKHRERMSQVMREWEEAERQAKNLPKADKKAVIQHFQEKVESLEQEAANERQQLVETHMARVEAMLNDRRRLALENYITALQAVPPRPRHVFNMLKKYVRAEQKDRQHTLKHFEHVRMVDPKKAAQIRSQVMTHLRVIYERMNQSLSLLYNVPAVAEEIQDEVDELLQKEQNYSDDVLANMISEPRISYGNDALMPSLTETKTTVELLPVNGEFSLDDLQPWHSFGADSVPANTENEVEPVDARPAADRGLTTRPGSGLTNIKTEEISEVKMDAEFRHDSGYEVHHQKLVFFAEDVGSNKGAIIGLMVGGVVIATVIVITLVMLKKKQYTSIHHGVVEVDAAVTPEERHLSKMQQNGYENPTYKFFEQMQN
Sequence of Cholinesterase (P06276 whole entry): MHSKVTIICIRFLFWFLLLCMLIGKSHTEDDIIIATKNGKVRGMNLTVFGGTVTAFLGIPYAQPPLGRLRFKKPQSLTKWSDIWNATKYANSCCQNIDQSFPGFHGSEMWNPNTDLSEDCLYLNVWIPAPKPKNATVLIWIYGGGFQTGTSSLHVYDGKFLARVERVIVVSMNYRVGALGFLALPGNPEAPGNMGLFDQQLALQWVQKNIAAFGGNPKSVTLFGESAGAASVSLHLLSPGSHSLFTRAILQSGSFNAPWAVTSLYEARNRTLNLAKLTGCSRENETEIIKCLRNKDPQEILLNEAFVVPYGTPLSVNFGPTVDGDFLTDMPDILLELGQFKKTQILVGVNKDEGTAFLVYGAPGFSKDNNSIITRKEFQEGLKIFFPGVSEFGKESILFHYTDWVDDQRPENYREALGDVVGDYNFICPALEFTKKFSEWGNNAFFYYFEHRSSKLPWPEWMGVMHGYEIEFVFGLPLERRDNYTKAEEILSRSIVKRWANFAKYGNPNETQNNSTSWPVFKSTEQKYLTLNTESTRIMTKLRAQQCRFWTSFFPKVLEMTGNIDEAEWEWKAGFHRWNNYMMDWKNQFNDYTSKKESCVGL

Row | Compound | IC50 (Acetylcholinesterase) [µM] | inhibition [1] [%] | Ratio IC50 (Homo sapiens) | IC50 [2] [µM] | IC50 [3] [µM] | IC50 (Cholinesterase) [µM] | selectivity ratio (BChE) | Activity (SH-SY5Y [4]) | Activity [5] | inhibition (INH) [6] [%] | TDI [7] | selectivity ratio (MAO-B) | CC50 at 48 h [8] [µM] | Activity (SH-SY5Y [9]) | Activity [10] | logPeff [11]
1 | C#CCN1CCCC(CN(CCCOC)C(=O)c2ccc3ccccc3c2)C1 (centres undefined) | > 100 | < 10 | 1 | > 100 | > 100 | 8.64 |  |  |  |  |  |  |  |  |  | 
2 | C#CCN1CCC(CNS(=O)(=O)c2ccc3ccccc3c2)CC1 | > 100 | < 10 | > 1.86 | > 100 | 53.9 | 2.6 | 90 | Active | Non-Toxic | > 70 | Active | 4 | 242 |  |  | 
3 | C#CCN1CCCC(CN(CCCOC)S(=O)(=O)c2ccc3ccccc3c2)C1 (centres undefined) | > 100 | < 10 | 1 | > 100 | > 100 | 0.127 | 375 |  |  |  |  |  | 48.1 | Active | Non-Toxic | 
4 | C#CCN1CCC(CN(CCOC)S(=O)(=O)c2ccc3ccccc3c2)CC1 | > 100 | < 10 | 1 | > 100 | > 100 | 0.384 |  |  |  |  |  |  |  |  |  | 
5 | C#CCN1CCC(CN(CCCOC)C(=O)c2ccc3ccccc3c2)CC1 | > 100 | < 10 | 1 | > 100 | > 100 | 4.59 |  |  |  |  |  |  |  |  |  | 
6 | C#CCN1CCCC(CNS(=O)(=O)c2ccc3ccccc3c2)C1 (centres undefined) | > 100 | < 10 | 1 | > 100 | > 100 | 1.22 |  |  |  |  |  |  |  |  |  | 
7 | C#CCN1CCCC(CN(CCOC)S(=O)(=O)c2ccc3ccccc3c2)C1 (centres undefined) | > 100 | < 10 | 1 | > 100 | > 100 | 0.137 |  |  |  |  |  |  |  |  |  | 
8 | C#CCN1CCC(CN(CCCOC)S(=O)(=O)c2ccc3ccccc3c2)CC1 | > 100 | < 10 | 1 | > 100 | > 100 | 0.281 |  |  |  |  |  |  |  |  |  | 
9 | CC(=O)[C@H]1CC[C@H]2[C@@H]3CCC4=CC(=O)CC[C@]4(C)[C@H]3CC[C@]12C [PROGESTERONE] |  |  |  |  |  |  |  |  |  |  |  |  |  |  |  | -4
10 | C#CCN1CCC(CN(CCOC)C(=O)c2ccc3ccccc3c2)CC1 | > 100 | 23.4 | 1 | > 100 | > 100 | 4.04 |  |  |  |  |  |  |  |  |  | 
11 | C#CCN1CCCC(CN(CCOC)C(=O)c2ccc3ccccc3c2)C1 (centres undefined) | > 100 | < 10 | 1 | > 100 | > 100 | 3.31 |  |  |  |  |  |  |  |  |  | 
12 | C#CCN1CCCC(CNC(=O)c2ccc3ccccc3c2)C1 (centres undefined) | > 100 | < 10 | > 1.69 | > 100 | 59.3 | 23.4 |  |  |  |  |  |  |  |  |  | 
13 | C#CCN1CCC(CNC(=O)c2ccc3ccccc3c2)CC1 | > 100 | < 10 | > 1.38 | > 100 | 72.6 | 54.4 |  |  |  |  |  |  |  |  |  | 
